Structures are written as SMILES. Like-named read-outs stand apart in the source and are kept apart here.

For four compounds, remaining binding results are on record in PMC10004634 (PLOS ONE, 2023).

Targets include FLT4 (Homo sapiens, UniProt P35916); IRAK1 (Homo sapiens, UniProt P51617); KIT (Homo sapiens, UniProt P10721); MAP3K1 (Homo sapiens, UniProt Q13233); MST1R (Homo sapiens, UniProt Q04912); ERN1 (Homo sapiens, UniProt O75460); MKNK1 (Homo sapiens, UniProt Q9BUB5); ACVR2A (Homo sapiens, UniProt P27037); CSK (Homo sapiens, UniProt P41240); CSNK1E (Homo sapiens, UniProt P49674); PIK3CA(E545K) (Homo sapiens, UniProt P42336, E545K).

Experiment in all cases: biochemical
What all share (set-up): KINOMEscan scanMAX competition binding, DNA-tagged kinases, qPCR read-out, percent control at 300 nM

In the next assay the target is T1, TEC (Homo sapiens, UniProt P42680).
T1 sequence (P42680 1-631): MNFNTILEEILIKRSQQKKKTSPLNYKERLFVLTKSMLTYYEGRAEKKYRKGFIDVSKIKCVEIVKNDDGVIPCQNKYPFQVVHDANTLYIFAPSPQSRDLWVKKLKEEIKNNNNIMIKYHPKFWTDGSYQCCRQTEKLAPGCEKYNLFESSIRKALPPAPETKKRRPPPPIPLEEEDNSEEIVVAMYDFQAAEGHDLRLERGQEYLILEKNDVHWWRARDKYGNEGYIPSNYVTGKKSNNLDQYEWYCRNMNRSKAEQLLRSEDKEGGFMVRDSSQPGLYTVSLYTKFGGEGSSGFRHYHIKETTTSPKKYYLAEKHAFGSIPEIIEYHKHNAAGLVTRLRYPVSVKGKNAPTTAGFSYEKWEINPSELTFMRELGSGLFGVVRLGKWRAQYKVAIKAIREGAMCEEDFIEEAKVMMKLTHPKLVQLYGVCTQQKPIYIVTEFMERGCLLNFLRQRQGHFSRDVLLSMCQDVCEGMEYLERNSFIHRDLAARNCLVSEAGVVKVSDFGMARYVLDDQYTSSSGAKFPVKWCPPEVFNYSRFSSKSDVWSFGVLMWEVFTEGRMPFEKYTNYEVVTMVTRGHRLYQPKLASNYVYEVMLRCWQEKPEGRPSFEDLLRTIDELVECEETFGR

For a further assay, the target named is T2, PAK7 (Homo sapiens, UniProt Q9P286).
T2 construct: gene PAK5

The next assay has as its target T3, MST3 (Homo sapiens, UniProt Q9Y6E0).
T3 construct: gene STK24

The target in a further assay is T4, BIKE (Homo sapiens, UniProt Q9NSY1).
T4 construct: gene BMP2K

Where [1] appears, read: read-out: Percent control / Zanubrutinib.
Where [2] appears, read: read-out: Percent control / Tirabrutinib.
[3] abbreviates: read-out: Percent control / Ibrutinib.
The mark [4] stands for this setting: read-out: Percent control / Acalabrutinib.

Sequence of FLT4 (P35916 whole entry): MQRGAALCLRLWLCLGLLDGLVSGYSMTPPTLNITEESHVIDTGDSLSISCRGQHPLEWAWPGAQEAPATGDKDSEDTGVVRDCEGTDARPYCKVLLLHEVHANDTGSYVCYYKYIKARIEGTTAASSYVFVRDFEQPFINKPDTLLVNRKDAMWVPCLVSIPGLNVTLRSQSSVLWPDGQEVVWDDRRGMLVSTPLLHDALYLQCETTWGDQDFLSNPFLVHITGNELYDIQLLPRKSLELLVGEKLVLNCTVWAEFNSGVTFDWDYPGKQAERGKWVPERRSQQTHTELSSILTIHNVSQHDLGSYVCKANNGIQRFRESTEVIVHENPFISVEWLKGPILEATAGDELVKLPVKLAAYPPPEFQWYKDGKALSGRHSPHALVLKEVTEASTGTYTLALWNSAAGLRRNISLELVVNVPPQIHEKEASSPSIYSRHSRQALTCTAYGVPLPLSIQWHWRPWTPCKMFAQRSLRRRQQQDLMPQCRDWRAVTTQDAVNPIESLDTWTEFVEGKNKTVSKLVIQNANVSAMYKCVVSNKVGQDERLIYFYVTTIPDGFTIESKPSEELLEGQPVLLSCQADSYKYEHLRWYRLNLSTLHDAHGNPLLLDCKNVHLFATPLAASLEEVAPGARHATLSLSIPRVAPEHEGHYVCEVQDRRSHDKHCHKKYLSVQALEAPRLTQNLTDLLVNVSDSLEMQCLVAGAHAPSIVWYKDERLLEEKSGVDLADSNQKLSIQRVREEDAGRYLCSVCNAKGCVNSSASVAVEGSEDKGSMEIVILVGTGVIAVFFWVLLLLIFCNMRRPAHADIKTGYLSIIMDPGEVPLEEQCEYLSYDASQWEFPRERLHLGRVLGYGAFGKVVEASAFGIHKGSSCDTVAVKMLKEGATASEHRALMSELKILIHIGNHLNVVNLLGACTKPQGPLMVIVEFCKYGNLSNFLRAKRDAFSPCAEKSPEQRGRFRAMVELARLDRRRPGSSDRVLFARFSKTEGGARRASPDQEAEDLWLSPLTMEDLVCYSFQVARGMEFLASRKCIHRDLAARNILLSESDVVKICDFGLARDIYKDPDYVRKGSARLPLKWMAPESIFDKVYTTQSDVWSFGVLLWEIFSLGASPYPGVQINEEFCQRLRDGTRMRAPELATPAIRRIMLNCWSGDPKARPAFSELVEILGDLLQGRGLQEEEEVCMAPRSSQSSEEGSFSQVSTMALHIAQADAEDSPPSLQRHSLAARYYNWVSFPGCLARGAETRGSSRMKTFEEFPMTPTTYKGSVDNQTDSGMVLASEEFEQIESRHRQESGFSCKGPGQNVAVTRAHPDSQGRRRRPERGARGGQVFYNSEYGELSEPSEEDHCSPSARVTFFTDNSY
Sequence of ACVR2A (P27037 whole entry): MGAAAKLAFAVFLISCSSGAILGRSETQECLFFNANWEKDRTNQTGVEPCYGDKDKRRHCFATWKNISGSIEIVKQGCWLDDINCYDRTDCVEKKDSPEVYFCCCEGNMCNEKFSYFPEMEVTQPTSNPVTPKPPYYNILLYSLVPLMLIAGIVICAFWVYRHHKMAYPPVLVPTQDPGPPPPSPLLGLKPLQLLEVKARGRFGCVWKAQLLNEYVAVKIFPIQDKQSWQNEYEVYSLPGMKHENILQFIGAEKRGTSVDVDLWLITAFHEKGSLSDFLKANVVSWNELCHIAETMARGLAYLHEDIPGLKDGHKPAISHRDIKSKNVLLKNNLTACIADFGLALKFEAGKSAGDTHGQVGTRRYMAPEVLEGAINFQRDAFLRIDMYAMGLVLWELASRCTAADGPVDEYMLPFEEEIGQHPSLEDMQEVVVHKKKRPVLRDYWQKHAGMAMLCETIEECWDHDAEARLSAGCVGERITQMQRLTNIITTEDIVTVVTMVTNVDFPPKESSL
Sequence of CSNK1E (P49674 whole entry): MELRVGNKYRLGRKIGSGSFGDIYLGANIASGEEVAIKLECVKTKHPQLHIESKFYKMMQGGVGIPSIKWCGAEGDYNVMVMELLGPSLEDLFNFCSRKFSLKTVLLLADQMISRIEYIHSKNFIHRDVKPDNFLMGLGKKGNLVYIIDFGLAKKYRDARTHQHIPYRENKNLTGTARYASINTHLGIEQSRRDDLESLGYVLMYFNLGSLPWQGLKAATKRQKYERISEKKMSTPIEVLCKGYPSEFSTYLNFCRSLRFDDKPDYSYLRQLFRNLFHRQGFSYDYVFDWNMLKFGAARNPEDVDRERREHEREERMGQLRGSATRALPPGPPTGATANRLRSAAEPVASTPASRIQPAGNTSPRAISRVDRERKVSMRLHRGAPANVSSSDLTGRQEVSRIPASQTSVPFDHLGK
Sequence of MKNK1 (Q9BUB5 whole entry): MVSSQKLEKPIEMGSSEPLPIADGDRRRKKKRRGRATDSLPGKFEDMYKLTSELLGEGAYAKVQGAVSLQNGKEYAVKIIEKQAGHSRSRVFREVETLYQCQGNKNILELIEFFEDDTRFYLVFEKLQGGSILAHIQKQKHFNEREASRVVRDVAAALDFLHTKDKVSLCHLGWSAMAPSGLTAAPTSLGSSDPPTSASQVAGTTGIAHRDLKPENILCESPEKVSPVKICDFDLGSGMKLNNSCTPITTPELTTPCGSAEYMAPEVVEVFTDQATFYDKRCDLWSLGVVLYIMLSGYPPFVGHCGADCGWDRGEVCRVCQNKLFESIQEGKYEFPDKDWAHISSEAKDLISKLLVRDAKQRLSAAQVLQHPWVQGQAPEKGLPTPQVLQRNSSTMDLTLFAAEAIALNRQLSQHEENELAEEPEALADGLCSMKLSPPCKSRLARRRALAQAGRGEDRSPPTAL
Sequence of ERN1 (O75460 whole entry): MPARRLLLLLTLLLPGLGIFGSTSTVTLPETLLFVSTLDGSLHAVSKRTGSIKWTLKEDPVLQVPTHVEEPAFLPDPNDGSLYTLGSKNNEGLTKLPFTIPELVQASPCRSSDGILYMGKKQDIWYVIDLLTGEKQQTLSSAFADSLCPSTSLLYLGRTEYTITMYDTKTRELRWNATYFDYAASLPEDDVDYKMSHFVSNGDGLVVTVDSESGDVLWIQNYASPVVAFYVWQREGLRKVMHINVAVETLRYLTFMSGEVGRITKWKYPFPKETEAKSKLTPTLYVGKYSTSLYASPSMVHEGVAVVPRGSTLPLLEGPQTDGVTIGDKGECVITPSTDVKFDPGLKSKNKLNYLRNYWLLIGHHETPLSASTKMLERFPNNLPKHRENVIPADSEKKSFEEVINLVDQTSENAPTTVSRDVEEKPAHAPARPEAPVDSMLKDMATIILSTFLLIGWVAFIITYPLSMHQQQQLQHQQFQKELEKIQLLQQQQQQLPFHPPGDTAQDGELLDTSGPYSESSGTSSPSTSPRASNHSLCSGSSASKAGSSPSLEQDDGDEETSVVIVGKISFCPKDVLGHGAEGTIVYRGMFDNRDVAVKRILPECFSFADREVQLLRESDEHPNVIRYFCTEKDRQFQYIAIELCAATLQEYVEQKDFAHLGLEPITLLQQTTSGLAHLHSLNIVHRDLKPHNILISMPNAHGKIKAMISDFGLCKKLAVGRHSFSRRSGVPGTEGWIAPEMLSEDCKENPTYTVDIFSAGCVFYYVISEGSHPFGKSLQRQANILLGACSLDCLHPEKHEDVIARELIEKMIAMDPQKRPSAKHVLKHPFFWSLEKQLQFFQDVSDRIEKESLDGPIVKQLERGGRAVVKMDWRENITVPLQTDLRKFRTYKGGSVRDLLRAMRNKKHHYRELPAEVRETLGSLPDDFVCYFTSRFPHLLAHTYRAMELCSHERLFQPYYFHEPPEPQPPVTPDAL
Sequence of KIT (P10721 whole entry): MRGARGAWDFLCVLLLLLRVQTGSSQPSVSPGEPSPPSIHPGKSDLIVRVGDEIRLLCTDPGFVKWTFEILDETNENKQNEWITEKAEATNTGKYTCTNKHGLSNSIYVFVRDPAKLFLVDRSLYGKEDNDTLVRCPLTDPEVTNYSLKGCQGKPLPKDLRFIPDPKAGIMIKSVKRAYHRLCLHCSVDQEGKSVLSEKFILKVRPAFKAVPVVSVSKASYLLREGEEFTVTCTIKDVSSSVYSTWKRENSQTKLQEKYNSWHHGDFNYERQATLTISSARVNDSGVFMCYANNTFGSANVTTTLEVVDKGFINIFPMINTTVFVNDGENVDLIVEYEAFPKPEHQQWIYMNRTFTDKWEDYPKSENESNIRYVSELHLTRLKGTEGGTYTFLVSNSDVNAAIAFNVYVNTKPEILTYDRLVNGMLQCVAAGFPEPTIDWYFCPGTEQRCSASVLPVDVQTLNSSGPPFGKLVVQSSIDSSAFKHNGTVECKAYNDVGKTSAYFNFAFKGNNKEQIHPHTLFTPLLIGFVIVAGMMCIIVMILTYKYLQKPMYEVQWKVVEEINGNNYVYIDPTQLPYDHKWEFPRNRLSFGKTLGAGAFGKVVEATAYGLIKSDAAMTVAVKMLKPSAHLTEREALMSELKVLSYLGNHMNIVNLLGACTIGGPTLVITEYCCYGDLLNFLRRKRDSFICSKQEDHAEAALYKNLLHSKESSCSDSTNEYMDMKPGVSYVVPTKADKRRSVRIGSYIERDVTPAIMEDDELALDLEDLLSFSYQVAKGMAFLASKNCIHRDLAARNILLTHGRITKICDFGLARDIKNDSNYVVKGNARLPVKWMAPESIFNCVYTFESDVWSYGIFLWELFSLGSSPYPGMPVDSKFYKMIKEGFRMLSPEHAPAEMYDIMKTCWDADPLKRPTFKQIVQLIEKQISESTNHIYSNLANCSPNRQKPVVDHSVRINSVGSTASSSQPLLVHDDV

Consider `C=CC(=O)N1CCC([C@@H]2CCNc3c(C(N)=O)c(-c4ccc(Oc5ccccc5)cc4)nn32)CC1` [Zanubrutinib], for which the remaining binding at 0.3 µM on TEC (setting [1]) is 20%; at PAK7 (setting [1]) it was 87%; on FLT4 (setting [1]), 100%; at IRAK1 (setting [1]) it was 100%; on KIT (setting [1]) it was 100%; at MST3 (setting [1]), 91%. Besides, the remaining binding at 0.3 µM was found to be 84% on MAP3K1 (setting [1]); 98% on MST1R (setting [1]); 100% on ERN1 (setting [1]); 100% on MKNK1 (setting [1]); 100% on ACVR2A (setting [1]).
Take `CC#CC(=O)N1CC[C@@H](n2c(=O)n(-c3ccc(Oc4ccccc4)cc3)c3c(N)ncnc32)C1` [Tirabrutinib]: the remaining binding at 0.3 µM is 7.8% at TEC (setting [2]); 47% at CSK (setting [2]); 99% at FLT4 (setting [2]); 91% at KIT (setting [2]); 98% on MST1R (setting [2]); 87% at ERN1 (setting [2]). Besides, the remaining binding at 0.3 µM was found to be 95% on CSNK1E (setting [2]), 88% on BIKE (setting [2]), 87% at MKNK1 (setting [2]) and 78% at PIK3CA(E545K) (setting [2]).
As for `C=CC(=O)N1CCC[C@@H](n2nc(-c3ccc(Oc4ccccc4)cc3)c3c(N)ncnc32)C1` [Ibrutinib], the remaining binding at 0.3 µM on TEC (setting [3]) worked out at 6%; on CSK (setting [3]), 1.4%; on PAK7 (setting [3]), 94%; at FLT4 (setting [3]) it was 57%; on IRAK1 (setting [3]), 89%; on MST3 (setting [3]) it was 90%. Besides, the remaining binding at 0.3 µM at MAP3K1 (setting [3]) was found to be 86%; on MST1R (setting [3]), 90%; on ERN1 (setting [3]), 89%; on CSNK1E (setting [3]), 79%; at BIKE (setting [3]) it was 66%; on MKNK1 (setting [3]), 89%. The remaining binding at 0.3 µM on ACVR2A (setting [3]) came to 86%; at PIK3CA(E545K) (setting [3]), 75%.
Consider `CC#CC(=O)N1CCC[C@H]1c1nc(-c2ccc(C(=O)Nc3ccccn3)cc2)c2c(N)nccn12` [Acalabrutinib], for which the remaining binding at 0.3 µM was 4.1% on TEC (setting [4]); 85% at CSK (setting [4]); 76% at PAK7 (setting [4]); 96% on FLT4 (setting [4]); 90% at IRAK1 (setting [4]); 91% on KIT (setting [4]). Further, the remaining binding at 0.3 µM was 94% on MST3 (setting [4]); 96% at MAP3K1 (setting [4]); 91% on MST1R (setting [4]); 96% on ERN1 (setting [4]); 89% at CSNK1E (setting [4]); 94% at BIKE (setting [4]). Also, the values for the remaining binding at 0.3 µM on MKNK1 (setting [4]), on ACVR2A (setting [4]) and at PIK3CA(E545K) (setting [4]) were 84%, 80% and 99%, respectively.
